According to ChEMBL document CHEMBL5137095, “N-Benzyl Benzamide Derivatives as Selective Sub-Nanomolar Butyrylcholinesterase Inhibitors for Possible Treatment in Advanced Alzheimer's Disease” (J Med Chem, 2022):

How the values were obtained:
[1] = Inhibition of human BChE assessed as inhibition constant
BV-2 [2] = experiment: Cytotoxicity against mouse BV-2 cells assessed as reduction in cell viability at 20 uM by MTT assay; format: toxicity, cell-based; details: bv-2, 20 µM
BV-2 [3] = experiment: Cytotoxicity against mouse BV-2 cells assessed as reduction in cell viability at 10 uM by MTT assay; format: toxicity, cell-based; details: bv-2, 10 µM
Cholinesterase [4] = target: T1, Cholinesterase (Homo sapiens, UniProt P06276); experiment: Inhibition of human BChE using acetylthiocholine iodide or butyrylthiocholine iodide as substrate preincubated for 5 mins followed by substrate addition by Ellman's method
T1 sequence (P06276 whole entry): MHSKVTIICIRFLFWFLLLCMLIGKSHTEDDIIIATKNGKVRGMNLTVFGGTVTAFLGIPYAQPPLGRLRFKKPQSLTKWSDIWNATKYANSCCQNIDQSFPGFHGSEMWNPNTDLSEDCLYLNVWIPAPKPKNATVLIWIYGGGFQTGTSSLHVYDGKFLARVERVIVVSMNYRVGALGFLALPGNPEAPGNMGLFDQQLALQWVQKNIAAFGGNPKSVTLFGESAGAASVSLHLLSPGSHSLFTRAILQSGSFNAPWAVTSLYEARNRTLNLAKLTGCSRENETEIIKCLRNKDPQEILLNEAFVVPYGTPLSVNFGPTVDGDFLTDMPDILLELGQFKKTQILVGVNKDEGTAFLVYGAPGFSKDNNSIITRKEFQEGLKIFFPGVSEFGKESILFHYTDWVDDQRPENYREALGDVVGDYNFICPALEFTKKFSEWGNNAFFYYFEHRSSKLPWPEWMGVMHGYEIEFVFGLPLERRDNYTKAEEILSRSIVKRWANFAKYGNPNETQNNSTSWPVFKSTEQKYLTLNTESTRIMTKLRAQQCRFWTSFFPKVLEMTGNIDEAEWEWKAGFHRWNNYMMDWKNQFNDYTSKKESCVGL

Cholinesterase [5] = target: T1, Cholinesterase; experiment: Inhibition of human BChE assessed as inhibition constant
Cholinesterase [6] = target: T1, Cholinesterase; experiment: Binding affinity to human BChE assessed as dissociation constant by surface plasmon resonance assay
[7] = n-octanol-water partition coefficient, log P of the compound by HPLC analysis; format: physicochemical
[8] = Permeability of compound incubated for 18 hrs by PAMPA-BBB assay; format: ADME; details: read-out: permeability
HT-22 [9] = experiment: Cytotoxicity against mouse HT-22 cells assessed as reduction in cell viability at 10 uM by MTT assay; format: toxicity, cell-based; details: ht-22, 10 µM
PC-12 [10] = experiment: Cytotoxicity against rat PC-12 cells assessed as reduction in cell viability at 10 uM by MTT assay; format: toxicity, cell-based; details: pc-12, 10 µM
SH-SY5Y [11] = experiment: Cytotoxicity against human SH-SY5Y cells assessed as reduction in cell viability at 10 uM by MTT assay; format: toxicity, cell-based
[12] = Cytotoxicity against mouse BV-2 cells assessed as cell survival rate at 10 uM by MTT assay; format: toxicity, cell-based; details: read-out: Activity
[13] = Cytotoxicity against mouse HT-22 cells assessed as cell survival rate at 10 uM by MTT assay; format: toxicity, cell-based; details: read-out: Activity
[14] = Cytotoxicity against rat PC-12 cells assessed as cell survival rate at 10 uM by MTT assay; format: toxicity, cell-based; details: read-out: Activity
[15] = Cytotoxicity against human SH-SY5Y cells assessed as cell survival rate at 10 uM by MTT assay; format: toxicity, cell-based; details: read-out: Activity
HT-22 [16] = experiment: Cytotoxicity against mouse HT-22 cells assessed as reduction in cell viability at 20 uM by MTT assay; format: toxicity, cell-based; details: ht-22, 20 µM
PC-12 [17] = experiment: Cytotoxicity against rat PC-12 cells assessed as reduction in cell viability at 20 uM by MTT assay; format: toxicity, cell-based; details: pc-12, 20 µM
SH-SY5Y [18] = experiment: Cytotoxicity against human SH-SY5Y cells assessed as reduction in cell viability at 20 uM by MTT assay; format: toxicity, cell-based
PC-12 [19] = experiment: Neuroprotective activity against H2O2-induced cell damage in rat PC-12 cells assessed as survival rate at 5 to 10 uM pretreated for 2 hrs followed by H2O2 addition and measured after 24 hrs by MTT assay; format: functional; details: dose 5-10 µM, time 26 hrs
SH-SY5Y [20] = experiment: Neuroprotective activity against amyloid beta (1 to 42)-induced cell damage in human SH-SY5Y cells assessed as cell survival rate at 25 uM pretreated for 2 hrs followed by amyloid beta (1 to 42) addition and measured after 24 hrs by MTT assay; format: functional; details: time 26 hrs
SH-SY5Y [21] = experiment: Neuroprotective activity against amyloid beta (1 to 42)-induced cell damage in human SH-SY5Y cells assessed as cell survival at 2 uM pretreated for 2 hrs followed by amyloid beta (1 to 42) addition and measured after 24 hrs by MTT assay; format: functional; details: time 26 hrs, read-out: Activity
[22] = Acute toxicity in ICR mouse assessed as death at 1000 mg/kg, po measured after 4 hrs; format: organism-based; details: in vivo
[23] = Acute toxicity in ICR mouse assessed as effect on consumption of water and food at 1000 mg/kg, po measured after 14 days; format: organism-based; details: in vivo, 336 h, time 14 day
[24] = Acute toxicity in ICR mouse assessed as increase in body weight at 1000 mg/kg, po measured after 14 days; format: organism-based; details: in vivo, 336 h, time 14 day
[25] = Elimination half life in Sprague-Dawley rat at 10 mg/kg, IG measured after 48 hrs by LC-MS analysis; format: ADME, organism-based; details: in vivo, po, read-out: beta t1/2 (converted)
[26] = Elimination half life in Sprague-Dawley rat at 10 mg/kg, iv measured after 48 hrs by LC-MS analysis; format: ADME, organism-based; details: in vivo, read-out: beta t1/2 (converted)
[27] = Tmax in Sprague-Dawley rat at 10 mg/kg, IG measured after 48 hrs by LC-MS analysis; format: ADME, organism-based; details: in vivo, po
[28] = Tmax in Sprague-Dawley rat at 10 mg/kg, iv measured after 48 hrs by LC-MS analysis; format: ADME, organism-based; details: in vivo
[29] = Cmax in Sprague-Dawley rat at 10 mg/kg, IG measured after 48 hrs by LC-MS analysis; format: ADME, organism-based; set-up: time 48 hrs, dose 10 mg/kg, route ig; details: in vivo, po
[30] = Cmax in Sprague-Dawley rat at 10 mg/kg, iv measured after 48 hrs by LC-MS analysis; format: ADME, organism-based; set-up: dose 10 mg/kg, time 48 hrs, route iv; details: in vivo
[31] = AUC (0 to infinitive) in Sprague-Dawley rat at 10 mg/kg, IG measured after 48 hrs by LC-MS analysis; format: ADME, organism-based; set-up: dose 10 mg/kg, time 48 hrs, route ig; details: in vivo, po
[32] = AUC (0 to infinitive) in Sprague-Dawley rat at 10 mg/kg, iv measured after 48 hrs by LC-MS analysis; format: ADME, organism-based; set-up: time 48 hrs, dose 10 mg/kg, route iv; details: in vivo
[33] = Oral bioavailability in Sprague-Dawley rat at 10 mg/kg measured after 48 hrs by LC-MS analysis; format: ADME, organism-based; details: in vivo
[34] = Microsomal stability in human liver microsomes assessed as half life measured after 120 mins; format: ADME, Microsome
[35] = Plasma concentration in ICR mouse at 10 mg/kg, po measured at 0.25 hrs by LC-MS analysis; format: ADME, organism-based
[36] = Plasma concentration in ICR mouse at 10 mg/kg, IG measured at 0.5 hrs by LC-MS analysis; format: ADME, organism-based; details: po
[37] = Plasma concentration in ICR mouse at 10 mg/kg, po measured at 1 hr by LC-MS analysis; format: ADME, organism-based
[38] = Plasma concentration in ICR mouse at 10 mg/kg, IG measured at 2 hrs by LC-MS analysis; format: ADME, organism-based; details: po
[39] = Plasma concentration in ICR mouse at 10 mg/kg, IG measured at 4 hrs by LC-MS analysis; format: ADME, organism-based; details: po
[40] = Plasma concentration in ICR mouse at 10 mg/kg, IG measured at 6 hrs by LC-MS analysis; format: ADME, organism-based; details: po
[41] = Brain concentration in ICR mouse at 10 mg/kg, IG measured at 0.25 hrs by LC-MS analysis; format: ADME, organism-based; details: po, read-out: Ct
[42] = Brain concentration in ICR mouse at 10 mg/kg, IG measured at 0.5 hrs by LC-MS analysis; format: ADME, organism-based; details: po, read-out: Ct
[43] = Brain concentration in ICR mouse at 10 mg/kg, IG measured at 1 hr by LC-MS analysis; format: ADME, organism-based; details: po, read-out: Ct
[44] = Brain concentration in ICR mouse at 10 mg/kg, IG measured at 2 hrs by LC-MS analysis; format: ADME, organism-based; details: po, read-out: Ct
[45] = Brain concentration in ICR mouse at 10 mg/kg, IG measured at 4 hrs by LC-MS analysis; format: ADME, organism-based; details: po, read-out: Ct
[46] = Brain concentration in ICR mouse at 10 mg/kg, IG measured at 6 hrs by LC-MS analysis; format: ADME, organism-based; details: po, read-out: Ct
SH-SY5Y [47] = experiment: Neuroprotective activity against amyloid beta (1 to 42)-induced cell damage in human SH-SY5Y cells assessed as cell survival at 5 uM pretreated for 2 hrs followed by amyloid beta (1 to 42) addition and measured after 24 hrs by MTT assay; format: functional; details: time 26 hrs, read-out: Activity
Cholinesterase [48] = target: Cholinesterase (Equus caballus, UniProt P81908); experiment: Inhibition of horse serum BChE using acetylthiocholine iodide or butyrylthiocholine iodide as substrate preincubated for 5 mins followed by substrate addition by Ellman's method
Sequence of Cholinesterase (Equus caballus, UniProt P81908) (P81908 whole entry): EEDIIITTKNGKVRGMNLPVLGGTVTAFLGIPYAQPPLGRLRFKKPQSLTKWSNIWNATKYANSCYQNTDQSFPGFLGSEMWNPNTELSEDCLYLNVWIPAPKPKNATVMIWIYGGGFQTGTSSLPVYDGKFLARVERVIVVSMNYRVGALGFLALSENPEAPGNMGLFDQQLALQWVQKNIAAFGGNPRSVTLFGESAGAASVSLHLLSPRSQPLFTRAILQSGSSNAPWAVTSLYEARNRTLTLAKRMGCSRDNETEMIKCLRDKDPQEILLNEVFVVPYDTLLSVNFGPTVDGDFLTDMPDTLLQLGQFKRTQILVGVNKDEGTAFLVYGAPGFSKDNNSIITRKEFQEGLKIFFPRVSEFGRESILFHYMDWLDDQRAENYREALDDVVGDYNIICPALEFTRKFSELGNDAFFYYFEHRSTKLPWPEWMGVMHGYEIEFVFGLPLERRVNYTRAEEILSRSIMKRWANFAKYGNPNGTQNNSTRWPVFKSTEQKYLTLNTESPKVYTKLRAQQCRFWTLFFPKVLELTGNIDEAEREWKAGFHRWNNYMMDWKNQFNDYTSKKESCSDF

SH-SY5Y [49] = experiment: Neuroprotective activity against GA-induced cell damage in human SH-SY5Y cells assessed as survival rate at 5 uM pretreated for 2 hrs followed by GA addition and measured after 24 hrs by MTT assay; format: functional

## CCN(CC)C(C)CN1c2ccccc2Sc2ccccc21 (configuration not stated) [ETHOPROPAZINE]
[1]
  Ki: 20 nM

## CCN(CC)Cc1ccccc1CNC(=O)c1cccc(NC(=O)c2ccc(F)cc2)c1
BV-2 [2]
  Activity: Non-Toxic
BV-2 [3]
  Activity: Non-Toxic
Cholinesterase [4]
  IC50: 0.08 nM
Cholinesterase [5]
  Ki: 0.61 nM
Cholinesterase [6]
  Kd: 0.37 nM
[7]
  logP: 1.7
[8]
  Papp at 18 h: 10.2 ×10⁻⁶ cm/s
HT-22 [9]
  Activity: Non-Toxic
PC-12 [10]
  Activity: Non-Toxic
SH-SY5Y [11]
  Activity: Non-Toxic
[12]
  viability at 10 µM: > 70%
[13]
  viability at 10 µM: > 70%
[14]
  viability at 10 µM: > 70%
[15]
  viability at 10 µM: > 70%
HT-22 [16]
  Activity: Non-Toxic
PC-12 [17]
  Activity: Non-Toxic
SH-SY5Y [18]
  Activity: Non-Toxic
PC-12 [19]
  Activity: 61.7%
SH-SY5Y [20]
  Activity: 64.12%
SH-SY5Y [21]
  viability at 2 µM: 68%
[22]
  Activity: Non-Toxic
[23]
  Activity: Non-Toxic
[24]
  Activity: Non-Toxic
[25]
  half-life: 28.1 h
[26]
  half-life: 17.2 h
[27]
  Tmax: 0.63 h
[28]
  Tmax: 6 min
[29]
  Cmax: 36.4 ng/mL
[30]
  Cmax: 1640 ng/mL
[31]
  AUC(0-inf): 497 ng·h/mL
[32]
  AUC(0-inf): 2170 ng·h/mL
[33]
  bioavailability: 21.7%
[34]
  half-life: 1.55 h
[35]
  concentration at 0.25 h: 25.7 ng/mL
[36]
  concentration at 0.5 h: 30.2 ng/mL
[37]
  concentration at 1 h: 20.9 ng/mL
[38]
  concentration at 2 h: 18.4 ng/mL
[39]
  concentration at 4 h: 17.4 ng/mL
[40]
  concentration at 6 h: 2.95 ng/mL
[41]
  concentration at 0.25 h: 25.4 ng/g
[42]
  concentration at 0.5 h: 26.8 ng/g
[43]
  concentration at 1 h: 37.5 ng/g
[44]
  concentration at 2 h: 17.7 ng/g
[45]
  concentration at 4 h: 16.4 ng/g
[46]
  concentration at 6 h: 15.3 ng/g

## CN(C)Cc1ccccc1CNC(=O)c1cccc(NC(=O)c2cccs2)c1
BV-2 [3]
  Activity: Non-Toxic
[7]
  logP: 1.93
[8]
  Papp at 18 h: 6.82 ×10⁻⁶ cm/s
HT-22 [9]
  Activity: Non-Toxic
PC-12 [10]
  Activity: Non-Toxic
SH-SY5Y [11]
  Activity: Non-Toxic
[12]
  viability at 10 µM: > 70%
[13]
  viability at 10 µM: > 70%
[14]
  viability at 10 µM: > 70%
[15]
  viability at 10 µM: > 70%
PC-12 [19]
  Activity: 61.7%
SH-SY5Y [20]
  Activity: 64.12%
SH-SY5Y [21]
  viability at 2 µM: 82.6%
SH-SY5Y [47]
  viability at 5 µM: 68%

## CCN(CC)Cc1ccccc1CNC(=O)c1cc(Br)cc(NC(=O)c2ccc(F)cc2)c1
Cholinesterase [48]
  IC50: 0.42 nM
Cholinesterase [4]
  IC50: 0.58 nM
[7]
  logP: 2.04
[8]
  Papp at 18 h: 6.93 ×10⁻⁶ cm/s
SH-SY5Y [49]
  Activity: 70%

## CCCN(CCC)Cc1ccccc1CNC(=O)c1cccc(NC(=O)c2cccs2)c1
BV-2 [3]
  Activity: Non-Toxic
Cholinesterase [4]
  IC50: 0.67 nM
[7]
  logP: 1.02
[8]
  Papp at 18 h: 8.69 ×10⁻⁶ cm/s
HT-22 [9]
  Activity: Non-Toxic
PC-12 [10]
  Activity: Non-Toxic
SH-SY5Y [11]
  Activity: Non-Toxic
[12]
  viability at 10 µM: > 70%
[13]
  viability at 10 µM: > 70%
[14]
  viability at 10 µM: > 70%
[15]
  viability at 10 µM: > 70%
PC-12 [19]
  Activity: 61.7%
